This is an account of results in US20090209610A1, “Polymorphic form of 6-(4-chlorophenyl)-2,2-dimethyl-7-Phenyl-2,3-Dihydro-1h-Pyrrolizin-5-Ylacetic Acid” (Merckle GmgH, priority 2005, published 2009).

Data set [1] can be described thus: particle size measurement by laser diffraction (Helios-Sympatec). As to conditions: for Particle size distribution: Table 3, overall range. The class given is physicochemical. The method, then:
Polymorph B has a narrow particle size distribution: d10-d90=1.8 μm-15.9 μm. The average particle size is 6.7 μm. Particle size measurements were carried out by means of laser diffraction spectra using the Helios-Sympatec system: dry disperser RODOS; focal length 50 mm.

A short description of data set [2]: stability of the crystalline form during drying and storage, chemical stability. The class given is physicochemical. The source says:
Polymorph B has a crystalline structure and high purity. Owing to the crystalline structure, polymorph B is stable during drying and storage. No phase transitions and no secondary aggregations are to be observed.
Surface phenomena such as electrostatic charging, adhesion, adsorption etc. occur to a distinctly smaller extent by comparison with polymorph A. The crystal structure additionally results in a high chemical stability. Owing to the narrow particle size distribution compared with polymorph A, it is possible to employ polymorph B directly for producing pharmaceutical formulations. An additional grinding step is unnecessary.

For data set [3], the target named is cyclooxygenase (CO) and lipoxygenase (LO). The data set can be described thus: inhibitory effect on the enzymes cyclooxygenase and lipoxygenase. It is filed as biochemical. The following applies: ratio of IC50 lipoxygenase to IC50 cyclooxygenase. The text has this:
It is notable for a strong analgesic effect and for a similar inhibitory effect on the enzymes cyclooxygenase (CO) and lipoxygenase (LO) (IC50LO/IC50CO˜1). It can therefore be used in the treatment of disorders associated with a change in arachidonic acid metabolism. Particular mention should be made of rheumatoid diseases and the prevention of allergy-induced disorders. […] In addition, it can be used for the treatment of hypercholesterolaemia.

Molecules are shown by their SMILES.

In the case of `CC1(C)Cc2c(-c3ccccc3)c(-c3ccc(Cl)cc3)c(CC(=O)O)n2C1` [Polymorph A, 6-(4-chlorophenyl)-2,2-dimethyl-7-phenyl-2,3-dihydro-1H-pyrrolizin-5-ylacetic acid], the Particle size distribution in data set [1] is on record as 2-500 μm.
`CC1(C)Cc2c(-c3ccccc3)c(-c3ccc(Cl)cc3)c(CC(=O)O)n2C1` [Polymorph B, 6-(4-chlorophenyl)-2,2-dimethyl-7-phenyl-2,3-dihydro-1H-pyrrolizin-5-ylacetic acid]: in data set [1], the Particle size distribution was 0.5-70 μm. In data set [1] (laser diffraction), the average particle size was found to be 6.7 μm. Besides, the “particle size distribution d10” value in data set [1] (laser diffraction, dry disperser RODOS, focal length 50 mm) came out at 1.8 μm. In addition, the “stability during drying and storage” value in data set [2] (no phase transitions and no secondary aggregations observed) is listed as “stable”. In addition, the chemical stability result in data set [2] (resulting from the crystal structure) is recorded as “high”. For the same molecule, the IC50LO/IC50CO in data set [3] is given as roughly 1.
